Reference: patent US12539292B2, “BRM targeting compounds and associated methods of use” (Arvinas Operations, Inc., priority 2018, dated 2026)
Read-outs that look alike come from different tables or passages of the source.

Molecular target: T1, BRM (Homo sapiens, UniProt P51531)
T1 construct: In-Cell Western Screen of BRM Degradation in SW1573 Cells; endogenous in cells; host or cells: SW1573
Experiment: In-cell Western screen of BRM degradation in SW1573 cells (Dmax and DC50)
Type: cell-based
Details: for DC50: read-out: BRM DC50; for Dmax: SW1573, read-out: BRM Dmax (%)
Procedure, shortened: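 BRM levels were read by LI-COR in-cell Western after two-channel (800/680 nm) immunostaining of fixed, Triton-permeabilised SW1573 cells.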

[1] = % degraded, when tested at the top concentration of between 0.3 and 10 μM

T1 sequence (P51531 whole entry): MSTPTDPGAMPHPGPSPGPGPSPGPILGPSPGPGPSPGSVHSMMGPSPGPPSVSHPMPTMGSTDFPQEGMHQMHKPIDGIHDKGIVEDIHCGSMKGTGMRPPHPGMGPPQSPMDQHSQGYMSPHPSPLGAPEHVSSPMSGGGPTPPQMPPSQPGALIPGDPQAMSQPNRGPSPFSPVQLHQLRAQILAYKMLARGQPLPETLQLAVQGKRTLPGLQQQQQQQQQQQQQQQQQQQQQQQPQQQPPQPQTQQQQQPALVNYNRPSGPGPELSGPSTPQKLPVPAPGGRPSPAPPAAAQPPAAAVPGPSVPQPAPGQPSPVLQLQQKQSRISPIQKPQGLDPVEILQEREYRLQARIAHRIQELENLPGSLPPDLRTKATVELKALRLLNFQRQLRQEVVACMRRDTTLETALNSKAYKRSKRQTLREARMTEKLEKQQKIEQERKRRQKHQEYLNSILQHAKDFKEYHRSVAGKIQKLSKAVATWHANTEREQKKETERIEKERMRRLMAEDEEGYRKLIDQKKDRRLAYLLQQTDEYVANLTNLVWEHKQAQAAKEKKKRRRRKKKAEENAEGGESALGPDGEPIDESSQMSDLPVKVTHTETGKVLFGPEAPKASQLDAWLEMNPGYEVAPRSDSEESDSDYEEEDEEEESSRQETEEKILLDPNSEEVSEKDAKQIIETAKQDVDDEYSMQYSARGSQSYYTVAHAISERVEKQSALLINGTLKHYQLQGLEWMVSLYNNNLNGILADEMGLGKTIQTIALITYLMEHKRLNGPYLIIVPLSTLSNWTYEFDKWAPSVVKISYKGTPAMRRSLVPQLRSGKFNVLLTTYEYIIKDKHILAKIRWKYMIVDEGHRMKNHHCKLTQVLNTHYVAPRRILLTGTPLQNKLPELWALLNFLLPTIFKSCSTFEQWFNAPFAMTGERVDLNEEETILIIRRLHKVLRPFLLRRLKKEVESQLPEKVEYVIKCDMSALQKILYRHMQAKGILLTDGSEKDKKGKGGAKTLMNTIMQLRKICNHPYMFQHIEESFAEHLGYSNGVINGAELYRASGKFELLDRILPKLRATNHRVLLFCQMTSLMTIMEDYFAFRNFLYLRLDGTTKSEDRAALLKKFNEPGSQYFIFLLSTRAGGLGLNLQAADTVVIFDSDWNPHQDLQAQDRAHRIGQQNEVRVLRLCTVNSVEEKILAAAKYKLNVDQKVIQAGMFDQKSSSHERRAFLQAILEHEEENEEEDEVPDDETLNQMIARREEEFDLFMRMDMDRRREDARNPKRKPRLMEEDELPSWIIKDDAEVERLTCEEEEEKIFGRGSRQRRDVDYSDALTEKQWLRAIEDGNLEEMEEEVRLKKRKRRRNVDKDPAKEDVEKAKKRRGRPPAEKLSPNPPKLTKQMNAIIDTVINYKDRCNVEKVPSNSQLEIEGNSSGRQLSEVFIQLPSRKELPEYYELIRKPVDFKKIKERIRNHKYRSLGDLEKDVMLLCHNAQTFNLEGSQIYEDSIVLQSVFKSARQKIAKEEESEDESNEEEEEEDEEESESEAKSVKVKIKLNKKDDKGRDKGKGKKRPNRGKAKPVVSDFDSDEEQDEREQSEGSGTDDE

| Structure (SMILES) | BRM Dmax (%) [1] | DC50 (degradation of BRM) [nM] | Dmax [1] [%] | DC50 (target protein degradation) [nM] |
| --- | --- | --- | --- | --- |
| Cc1ncsc1-c1ccc([C@H](C)NC(=O)[C@@H]2C[C@@H](O)CN2C(=O)[C@H](c2cc(OCCC3(O)CCN(C[C@H]4C[C@H](Oc5cc(N6C7CC[C@@H]6CN(c6cc(-c8ccccc8O)nnc6N)C7)ccn5)C4)CC3)no2)C(C)C)cc1 [compound 435, (2S,4R)-1-((2S)-2-(3-(2-(1-(((1r,3S)-3-((4-(3-(3-amino-6-(2-hydroxyphenyl)pyridazin-4-yl)-3,8-diazabicyclo[3.2.1]octan-8-yl)pyridin-2-yl)oxy)cyclobutyl)methyl)-4-hydroxypiperidin-4-yl)ethoxy)isoxazol-5-yl)-3-methylbutanoyl)-4-hydroxy-N-((S)-1-(4-(4-methylthiazol-5-yl)phenyl)ethyl)pyrrolidine-2-carboxamide] | A (A > 75) | < 2.5 |  |  |
| Cc1ncsc1-c1ccc([C@H](C)NC(=O)[C@@H]2C[C@@H](O)CN2C(=O)[C@@H](c2cc(OCCC3(O)CCN(C[C@H]4C[C@H](Oc5cc(N6C7CCC6CN(c6cc(-c8ccccc8O)nnc6N)C7)ccn5)C4)CC3)no2)C(C)C)cc1 [compound 436, (2S,4R)-1-((2R)-2-(3-(2-(1-(((1r,3R)-3-((4-(3-(3-amino-6-(2-hydroxyphenyl)pyridazin-4-yl)-3,8-diazabicyclo[3.2.1]octan-8-yl)pyridin-2-yl)oxy)cyclobutyl)methyl)-4-hydroxypiperidin-4-yl)ethoxy)isoxazol-5-yl)-3-methylbutanoyl)-4-hydroxy-N-((S)-1-(4-(4-methylthiazol-5-yl)phenyl)ethyl)pyrrolidine-2-carboxamide] |  | < 2.5 | > 75 |  |
| Cc1nccn1-c1ccc([C@H](C)NC(=O)[C@@H]2C[C@@H](O)CN2C(=O)[C@@H](c2cc(N3CCN(CC4CCN(C[C@H]5C[C@H](Oc6cc(N7C8CCC7CN(c7cc(-c9ccccc9O)nnc7N)C8)ccn6)C5)CC4)CC3)no2)C(C)C)cc1 [compound 437, (2S,4R)-1-((2R)-2-(3-(4-((1-(((1r,3r)-3-((4-(3-(3-amino-6-(2-hydroxyphenyl)pyridazin-4-yl)-3,8-diazabicyclo[3.2.1]octan-8-yl)pyridin-2-yl)oxy)cyclobutyl)methyl)piperidin-4-yl)methyl)piperazin-1-yl)isoxazol-5-yl)-3-methylbutanoyl)-4-hydroxy-N-((S)-1-(4-(2-methyl-1H-imidazol-1-yl)phenyl)ethyl)pyrrolidine-2-carboxamide] |  | < 2.5 | > 75 |  |
| CC(C)[C@H](C(=O)N1C[C@H](O)C[C@H]1C(=O)N[C@@H](C)c1ccc(C2CC2(F)F)cc1)c1cc(OCCN2CCC(O[C@H]3C[C@H](Oc4cc(N5C6CCC5CN(c5cc(-c7ccccc7O)nnc5N)C6)ccn4)C3)CC2)no1 (stereo partly drawn) [compound 438, (2S,4R)-1-((2S)-2-(3-(2-(4-((1r,3S)-3-((4-(3-(3-amino-6-(2-hydroxyphenyl)pyridazin-4-yl)-3,8-diazabicyclo[3.2.1]octan-8-yl)pyridin-2-yl)oxy)cyclobutoxy)piperidin-1-yl)ethoxy)isoxazol-5-yl)-3-methylbutanoyl)-N-((1S)-1-(4-(2,2-difluorocyclopropyl)phenyl)ethyl)-4-hydroxypyrrolidine-2-carboxamide] |  | > 30 |  |  |
| CC(C)[C@@H](C(=O)N1C[C@H](O)C[C@H]1C(=O)N[C@@H](C)c1ccc(C2CC2(F)F)cc1)c1cc(OCCN2CCC(O[C@H]3C[C@H](Oc4cc(N5C6CCC5CN(c5cc(-c7ccccc7O)nnc5N)C6)ccn4)C3)CC2)no1 (stereo partly drawn) [compound 439, (2S,4R)-1-((2R)-2-(3-(2-(4-((1r,3R)-3-((4-(3-(3-amino-6-(2-hydroxyphenyl)pyridazin-4-yl)-3,8-diazabicyclo[3.2.1]octan-8-yl)pyridin-2-yl)oxy)cyclobutoxy)piperidin-1-yl)ethoxy)isoxazol-5-yl)-3-methylbutanoyl)-N-((1S)-1-(4-(2,2-difluorocyclopropyl)phenyl)ethyl)-4-hydroxypyrrolidine-2-carboxamide] |  | > 30 |  |  |
| Cc1ncsc1-c1cnc([C@@H](C)NC(=O)[C@@H]2C[C@@H](O)CN2C(=O)[C@H](c2cc(OCCN3CCC(O[C@H]4C[C@H](Oc5cc(N6C7CCC6CN(c6cc(-c8ccccc8O)nnc6N)C7)ccn5)C4)CC3)no2)C(C)C)cn1 [compound 440, (2S,4R)-1-((2S)-2-(3-(2-(4-((1r,3S)-3-((4-(3-(3-amino-6-(2-hydroxyphenyl)pyridazin-4-yl)-3,8-diazabicyclo[3.2.1]octan-8-yl)pyridin-2-yl)oxy)cyclobutoxy)piperidin-1-yl)ethoxy)isoxazol-5-yl)-3-methylbutanoyl)-4-hydroxy-N-((R)-1-(5-(4-methylthiazol-5-yl)pyrazin-2-yl)ethyl)pyrrolidine-2-carboxamide] |  | > 30 |  |  |
| Cc1ncsc1-c1cnc([C@@H](C)NC(=O)[C@@H]2C[C@@H](O)CN2C(=O)[C@@H](c2cc(OCCN3CCC(O[C@H]4C[C@H](Oc5cc(N6C7CCC6CN(c6cc(-c8ccccc8O)nnc6N)C7)ccn5)C4)CC3)no2)C(C)C)cn1 [compound 441, (2S,4R)-1-((2R)-2-(3-(2-(4-((1r,3R)-3-((4-(3-(3-amino-6-(2-hydroxyphenyl)pyridazin-4-yl)-3,8-diazabicyclo[3.2.1]octan-8-yl)pyridin-2-yl)oxy)cyclobutoxy)piperidin-1-yl)ethoxy)isoxazol-5-yl)-3-methylbutanoyl)-4-hydroxy-N-((R)-1-(5-(4-methylthiazol-5-yl)pyrazin-2-yl)ethyl)pyrrolidine-2-carboxamide] |  | 2.5 to 10 | > 75 |  |
| Cc1ncsc1-c1ccc([C@@H](C)NC(=O)[C@@H]2C[C@@H](O)CN2C(=O)[C@H](c2cc(OCCN3CCC(O[C@H]4C[C@H](Oc5cc(N6C7CCC6CN(c6cc(-c8ccccc8O)nnc6N)C7)ccn5)C4)CC3)no2)C(C)C)nn1 [compound 442, (2S,4R)-1-((2S)-2-(3-(2-(4-((1r,3S)-3-((4-(3-(3-amino-6-(2-hydroxyphenyl)pyridazin-4-yl)-3,8-diazabicyclo[3.2.1]octan-8-yl)pyridin-2-yl)oxy)cyclobutoxy)piperidin-1-yl)ethoxy)isoxazol-5-yl)-3-methylbutanoyl)-4-hydroxy-N-((R)-1-(6-(4-methylthiazol-5-yl)pyridazin-3-yl)ethyl)pyrrolidine-2-carboxamide] |  | > 30 |  |  |
| Cc1ncsc1-c1ccc([C@@H](C)NC(=O)[C@@H]2C[C@@H](O)CN2C(=O)[C@@H](c2cc(OCCN3CCC(O[C@H]4C[C@H](Oc5cc(N6C7CCC6CN(c6cc(-c8ccccc8O)nnc6N)C7)ccn5)C4)CC3)no2)C(C)C)nn1 [compound 443, (2S,4R)-1-((2R)-2-(3-(2-(4-((1r,3R)-3-((4-(3-(3-amino-6-(2-hydroxyphenyl)pyridazin-4-yl)-3,8-diazabicyclo[3.2.1]octan-8-yl)pyridin-2-yl)oxy)cyclobutoxy)piperidin-1-yl)ethoxy)isoxazol-5-yl)-3-methylbutanoyl)-4-hydroxy-N-((R)-1-(6-(4-methylthiazol-5-yl)pyridazin-3-yl)ethyl)pyrrolidine-2-carboxamide] |  | > 30 |  |  |
| Cc1ncsc1-c1ccc([C@H](C)NC(=O)[C@@H]2C[C@@H](O)CN2C(=O)[C@H](c2cc(OCCC3CCN([C@H]4C[C@H](CN5CCOC6(CCN(c7cc(-c8ccccc8O)nnc7N)CC6)C5)C4)CC3)no2)C(C)C)cc1 [compound 444, (2S,4R)-1-((S)-2-(3-(2-(1-((1r,3S)-3-((9-(3-amino-6-(2-hydroxyphenyl)pyridazin-4-yl)-1-oxa-4,9-diazaspiro[5.5]undecan-4-yl)methyl)cyclobutyl)piperidin-4-yl)ethoxy)isoxazol-5-yl)-3-methylbutanoyl)-4-hydroxy-N-((S)-1-(4-(4-methylthiazol-5-yl)phenyl)ethyl)pyrrolidine-2-carboxamide] |  | < 2.5 | > 75 |  |
| Cc1ncsc1-c1ccc([C@H](C)NC(=O)[C@@H]2C[C@@H](O)CN2C(=O)[C@@H](c2cc(OCCC3CCN([C@H]4C[C@H](CN5CCOC6(CCN(c7cc(-c8ccccc8O)nnc7N)CC6)C5)C4)CC3)no2)C(C)C)cc1 [compound 445, (2S,4R)-1-((R)-2-(3-(2-(1-((1r,3R)-3-((9-(3-amino-6-(2-hydroxyphenyl)pyridazin-4-yl)-1-oxa-4,9-diazaspiro[5.5]undecan-4-yl)methyl)cyclobutyl)piperidin-4-yl)ethoxy)isoxazol-5-yl)-3-methylbutanoyl)-4-hydroxy-N-((S)-1-(4-(4-methylthiazol-5-yl)phenyl)ethyl)pyrrolidine-2-carboxamide] |  | < 2.5 | > 75 |  |
| Cc1ncsc1-c1ccc([C@H](C)NC(=O)[C@@H]2C[C@@H](O)CN2C(=O)C(c2cc(OCCN3[C@H](C)C[C@H](O[C@H]4C[C@H](Oc5cc(N6C7CCC6CN(c6cc(-c8ccccc8O)nnc6N)C7)ccn5)C4)C[C@@H]3C)no2)C(C)C)cn1 (stereo partly drawn) [compound 448, (2S,4R)-1-(2-(3-(2-((2S,4S,6R)-4-((1r,3R)-3-((4-(3-(3-amino-6-(2-hydroxyphenyl)pyridazin-4-yl)-3,8-diazabicyclo[3.2.1]octan-8-yl)pyridin-2-yl)oxy)cyclobutoxy)-2,6-dimethylpiperidin-1-yl)ethoxy)isoxazol-5-yl)-3-methylbutanoyl)-4-hydroxy-N-((S)-1-(6-(4-methylthiazol-5-yl)pyridin-3-yl)ethyl)pyrrolidine-2-carboxamide] |  |  | > 75 | < 2.5 |
| Cc1ncsc1-c1ccc([C@H](C)NC(=O)[C@@H]2C[C@@H](O)CN2C(=O)[C@H](c2cc(OCCC3CCN(C(=O)[C@H]4C[C@@H](CN5CCC([C@H](C)n6cc(-c7cc(-c8ccccc8O)nnc7N)cn6)CC5)C4)CC3)no2)C(C)C)cc1 [compound 449, (2S,4R)-1-((S)-2-(3-(2-(1-((1R,3R)-3-((4-((S)-1-(4-(3-amino-6-(2-hydroxyphenyl)pyridazin-4-yl)-1H-pyrazol-1-yl)ethyl)piperidin-1-yl)methyl)cyclobutane-1-carbonyl)piperidin-4-yl)ethoxy)isoxazol-5-yl)-3-methylbutanoyl)-4-hydroxy-N-((S)-1-(4-(4-methylthiazol-5-yl)phenyl)ethyl)pyrrolidine-2-carboxamide] |  |  | > 75 | < 2.5 |
